Assay [1] deals with T1, BCAT2 (Homo sapiens, UniProt O15382).
T1 sequence (O15382 28-392): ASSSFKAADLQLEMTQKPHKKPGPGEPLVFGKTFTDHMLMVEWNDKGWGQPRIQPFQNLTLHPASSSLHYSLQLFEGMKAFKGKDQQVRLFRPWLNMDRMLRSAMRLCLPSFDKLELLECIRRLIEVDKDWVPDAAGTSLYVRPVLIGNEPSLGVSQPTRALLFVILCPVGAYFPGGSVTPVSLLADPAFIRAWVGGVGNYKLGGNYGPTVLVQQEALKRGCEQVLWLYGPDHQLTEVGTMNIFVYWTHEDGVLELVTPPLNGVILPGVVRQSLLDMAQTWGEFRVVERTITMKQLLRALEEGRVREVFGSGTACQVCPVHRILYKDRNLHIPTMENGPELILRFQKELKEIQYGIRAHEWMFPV
Kind of assay: BCAT2 in vitro enzyme inhibition assay (hBCAT2, glutamate dehydrogenase/diaphorase/resazurin coupled fluorescence read). To be noted: hBCAT2, 1 h preincubation at 25° C., one hour reaction; average where tested multiple times. Format: biochemical. In outline:
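hBCAT2 (0.33 μg/mL in mix) preincubated 1 h at 25 °C with compound (top 100 μM, 3-fold, 10 points) in Tris pH 8.0/NaCl/BSA; substrate mix added (L-leucine, α-ketoglutarate, GDH, NAD, diaphorase, resazurin), quenched with SDS after 1 h, fluorescence Ex 540/Em 590; duplicates, repeat tests averaged.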
(The colour change of resazurin is a common sign of viable cells or microbes.)

In assay [2] the target is T1, BCAT2. Kind of assay: BCAT2 cell inhibition using engineered A549 cells (MUT KO, BCAT1 KO; 13C6-KMV formation by LC-MS/MS). Format: cell-based. Details: expressed endogenous BCAT2; endogenous in cells; host or cells: A549 cells, MUT knockout and BCAT1 knockout. In short, it runs like this:
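Medium 13C6-KMV formation is read by LC-MS/MS after PFBHA derivatization with d8-KMV internal standard. Cells are CRISPR MUT/BCAT1 double-knockout A549 expressing endogenous BCAT2, given compound 15 min before labelled isoleucine (800 uM, added 1:1) for 24 h. CTG viability run in parallel; replicates averaged.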

Bounds are passed on as bounds.

As for `CO[C@H]1C[C@H](N2Cc3ccc(F)cc3C2=O)C[C@H](n2c(-c3ccccc3OCCO)nc3ccc(-c4ncco4)cc32)C1` [Example 241, 6-fluoro-2-((1R,3S,5R)-3-(2-(2-(2-hydroxyethoxy)phenyl)-6-(oxazol-2-yl)-1H-benzo[d]imid-azol-1-yl)-5-methoxycyclohex-yl)isoindolin-1-one], the IC50 against BCAT2 [1] is < 100 nM; against BCAT2 [2], 100 to 500 nM.
`CN1C[C@H](N2Cc3ccc(F)cc3C2=O)C[C@H](n2c(-c3ccccc3OCCO)nc3ccc(-c4ncccn4)cc32)C1` [Example 243, 6-fluoro-2-((3R,5S)-5-(2-(2-(2-hydroxyethoxy)phenyl)-6-(pyrimidin-2-yl)-1H-benzo[d]imidazol-1-yl)-1-methylpiper-idin-3-yl)isoindolin-1-one]: the figures for the IC50 at BCAT2 [1] and against BCAT2 [2] were < 100 nM and 100 to 500 nM, respectively.
In the case of `O=C(N[C@H]1CCC[C@@H](n2c(-c3ccccc3OC(F)F)nc3cnc(-c4nc[nH]n4)cc32)C1)c1cc(F)ccn1` [compound 30], the IC50 at BCAT2 [1] and on BCAT2 [2] was < 100 nM throughout.
Turning to `O=C(N[C@H]1CCC[C@@H](n2c(-c3ccccc3OC(F)F)nc3cnc(-c4nc[nH]n4)cc32)C1)c1cc(Cl)ccc1O` [compound 69], the IC50 at BCAT2 [1] and on BCAT2 [2] was < 100 nM in each case.
Regarding `O=C(N[C@H]1CCC[C@@H](n2c(-c3ccccc3OC(F)F)nc3cnc(-c4nc[nH]n4)cc32)C1)c1cc(Cl)ccc1OCCO` [compound 73], the IC50 at BCAT2 [1] and against BCAT2 [2] was < 100 nM throughout.
Take `O=C(N[C@H]1CCC[C@@H](n2c(-c3ccccc3F)nc3cnc(-c4nc[nH]n4)cc32)C1)c1cc(C(F)F)ccn1` [compound 100]: the IC50 against BCAT2 [1] and at BCAT2 [2] was < 100 nM throughout.
For the compound `O=C(N[C@H]1CCC[C@@H](n2c(-c3ccccc3F)nc3cnc(-c4ncn(C(F)F)n4)cc32)[C@@H]1O)c1cc(Cl)ccn1` [compound 118], the IC50 on BCAT2 [1] and against BCAT2 [2] was < 100 nM each time.
Consider `CN1C[C@H](NC(=O)c2cc(F)ccn2)C[C@H](n2c(-c3ccccc3OC(F)F)nc3cnc(-c4nc[nH]n4)cc32)C1` [compound 139], for which the half-inhibitory concentration (IC50) against BCAT2 [1] and against BCAT2 [2] was < 100 nM each time.
As for `CN1C[C@H](NC(=O)c2cc(Cl)ccn2)C[C@H](n2c(-c3ccccc3OC(F)F)nc3cnc(-c4nc[nH]n4)cc32)C1` [compound 141], the IC50 on BCAT2 [1] and against BCAT2 [2] was < 100 nM each time.
On to `O=C1c2cc(F)ccc2CN1[C@H]1CCC[C@@H](n2c(-c3ccccc3OC(F)F)nc3cnc(-c4nc[nH]n4)cc32)C1` [compound 180], for which the IC50 on BCAT2 [1] and on BCAT2 [2] was < 100 nM in each case.
Regarding `O=C1c2cc(F)ccc2CN1[C@H]1CCC[C@@H](n2c(-c3ccccc3OC(F)F)nc3cnc(-c4nc[nH]n4)cc32)[C@@H]1O` [compound 188], the values for the IC50 at BCAT2 [1] and at BCAT2 [2] were < 100 nM and 100 to 500 nM, respectively.
Regarding `O=C1c2cc(F)ccc2CN1[C@H]1CCC[C@@H](n2c(-c3c(F)cccc3OC(F)F)nc3cnc(-c4nc[nH]n4)cc32)[C@@H]1O` [compound 189], the IC50 at BCAT2 [1] and against BCAT2 [2] was < 100 nM in each case.
As for `O=C1c2cc(Cl)ccc2OCN1[C@H]1CCC[C@@H](n2c(-c3ccccc3OC(F)F)nc3cnc(-c4nc[nH]n4)cc32)C1` [compound 205], the IC50 on BCAT2 [1] and at BCAT2 [2] was < 100 nM throughout.
With `O=C1c2cc(F)ccc2OCN1[C@H]1CCC[C@@H](n2c(-c3ccccc3OC(F)F)nc3cnc(-c4nc[nH]n4)cc32)C1` [compound 211], the IC50 against BCAT2 [1] and at BCAT2 [2] was < 100 nM each time.
Regarding `O=C1c2cc(F)ccc2CN1[C@H]1CCC[C@@H](n2c(-c3ccccc3OC(F)F)nc3ccc(-c4nc[nH]n4)c(F)c32)C1` [compound 238], the concentration for half-maximal inhibition (IC50) against BCAT2 [1] and against BCAT2 [2] was < 100 nM throughout.
Turning to `O=C1c2cc(F)ccc2CN1[C@H]1CCC[C@@H](n2c(-c3c(F)cccc3OC(F)F)nc3ccc(-c4nc[nH]n4)cc32)[C@@H]1O` [compound 240], the concentration for half-maximal inhibition (IC50) at BCAT2 [1] was < 100 nM; on BCAT2 [2], 100 to 500 nM.

Usually IC50 stands for the concentration at which inhibition is half-maximal.

For the origin of these results see US20260334439A1, “BCAT2 INHIBITORS” (Agios Pharmaceuticals, Inc., priority 2023, published 2026).
